In patent US9193719B2, “1,2,4-triazol-5-ones and analogs exhibiting anti-cancer and anti-proliferative activities” (Deciphera Pharmaceuticals, LLC, priority 2013, dated 2015):

What was measured:
[1] = tested on: phospho-FMS in THP-1 cells; experiment: Phospho-FMS ELISA assay in THP-1 cells; type: cell-based; details: Homo sapiens, 4 h compound, M-CSF stimulation 5 min, read-out: pFMS inhibition in THP-1 cells
Description: THP-1 cells (catalog #TIB-202) were obtained from the ATCC. Briefly, cells were grown in RPMI 1640 supplemented with 10% characterized fetal bovine serum, 1% sodium pyruvate, 1% Penicillin-Streptomycin-Glutamine (PSG) and 55 uM 2-mercaptoethanol (Invitrogen, Carlsbad, Calif.) at 37 degrees Celsius, 5% CO2, 95% humidity. Cells were allowed to expand until reaching 70-95% confluency at which point they were subcultured or harvested for assay use.
A serial dilution of test compound was diluted 1:100 in assay medium (RPMI 1640 supplemented with 10% characterized fetal bovine serum) in a 96 well black clear bottom plate (Corning, Corning, N.Y.). In a separate 96 well black clear bottom plate, one hundred and fifty thousand THP-1 cells were added per well in 100 μL in assay medium. Fifty microliters of diluted compound was then added to the cells. Plates were incubated for 4 hours at 37 degrees Celsius, 5% CO2, 95% humidity. At the end of the incubation period, cells were stimulated with 50 μL of a 100 nM solution of recombinant human M-CSF (catalog #216-MC, R & D Systems, Minneapolis, Minn.) in assay medium and the plate was incubated for 5 minutes at 37 degrees Celsius, 5% CO2, 95% humidity. Lysates were prepared and used to perform the phospho-FMS ELISA as described by the manufacturer (catalog #DYC3268, R & D Systems, Minneapolis, Minn.). GraphPad Prism was used to calculate IC50 values obtained from data generated from the ELISA assay.

osteoclast precursors = experiment: Osteoclast tartrate-resistant acid phosphatase assay; type: cell-based; details: RANKL and M-CSF, 7-14 days, tartrate-resistant acid phosphatase activity
Description: Osteoclast Tartrate-Resistant Acid Phosphatase Assay
A serial dilution of test compound was dispensed into a 384-well black clear bottom plate (Nalge Nunc International, Rochester, N.Y.). Compound was diluted by the addition of DMEM media supplemented with 10% characterized fetal bovine serum (Invitrogen, Carlsbad, Calif.). Diluted compound was transferred to a 384-well black clear bottom plate. Two-thousand five hundred osteoclast precursors (Lonza, Walkersville, Md.) were added per well in growth media containing Receptor Activator of Nuclear Factor Kappa-beta ligand (RANKL) and M-CSF (R&D Systems, Minneapolis, Minn.). Plates were incubated for 7-14 days at 37 degrees Celsius, 5% CO2, and 95% humidity to allow differentiation of osteoclast precursors. At the end of the incubation period, 10 μL of supernatant from each well was transferred to a clear 384-well plate. Tartrate-resistant acid phosphatase activity in the supernatant samples was determined using an acid phosphatase assay kit (Sigma, St. Louis, Mo.). Absorbance was measured at 550 nm using a plate reader. Data was analyzed using Prism software (Graphpad, San Diego, Calif.) to calculate IC50 values.

[2] = target: T1, unphosphorylated c-KIT kinase (uKIT, Seq. ID no. 2) (Homo sapiens, UniProt P10721); experiment: uKit kinase enzymatic assay (pyruvate kinase/lactate dehydrogenase coupled); type: biochemical; details: ATP 2000 μM, rate 3 to 4 h
T1 construct: uKit with N-terminal GST fusion used for screening
Description: uKit Kinase (Seq. ID No. 2) Assay
Activity of unphosphorylated c-KIT kinase (uKIT, Seq. ID no. 2) was determined by following the production of ADP from the KIT kinase reaction with ATP and poly E4Y as substrates through coupling with the pyruvate kinase/lactate dehydrogenase system (e.g., Schindler et al. Science (2000) 289: 1938-1942). In this assay, the oxidation of NADH (thus the decrease at A340 nm) was continuously monitored spectrophometrically. The reaction mixture (100 μl) contained unphosphorylated KIT (12 nM), polyE4Y (1 mg/mL), MgCl2 (10 mM), pyruvate kinase (4 units), lactate dehydrogenase (0.7 units), phosphoenol pyruvate (1 mM), and NADH (0.28 mM) and ATP (2000 μM) in 90 mM Tris buffer containing 0.2% octyl-glucoside and 1% DMSO, pH 7.5. The inhibition reaction was started by mixing serial diluted test compound with the above reaction mixture. The absorption at 340 nm was monitored continuously for 4 hours at 30° C. on Synergy 2 plate reader (BioTech). Reaction rates around 3 to 4 h time frame were used to calculate % inhibitions, from which IC50 values were generated.

M-NFS-60 cells = experiment: M-NFS-60 cell proliferation assay (resazurin); type: cell-based; details: 67 h incubation
Description: M-NFS-60 cells (catalog #CRL-1838) were obtained from the American Type Culture Collection (ATCC, Manassas, Va.). Briefly, cells were grown in suspension in RPMI 1640 medium supplemented with 10% characterized fetal bovine serum (Invitrogen, Carlsbad, Calif.), 0.05 mM 2-mercaptoethanol, and 20 ng/mL mouse recombinant macrophage colony stimulating factor (M-CSF) at 37° C., 5% CO2, and 95% humidity. Cells were allowed to expand until reaching saturation at which point they were subcultured or harvested for assay use.
M-NFS-60 Cell Proliferation Assay
A serial dilution of test compound was dispensed into a 384-well black clear bottom plate (Corning, Corning, N.Y.). Two thousand five hundred cells were added per well in 50 μL complete growth medium. Plates were incubated for 67 h at 37° C., 5% CO2, and 95% humidity. At the end of the incubation period 10 μL of a 440 μM solution of resazurin (Sigma, St. Louis, Mo.) in PBS was added to each well and incubated for an additional 5 h at 37° C., 5% CO2, and 95% humidity. Plates were read on a Synergy2 reader (Biotek, Winooski, Vt.) using an excitation of 540 nm and an emission of 600 nm. IC50 values were calculated from a series of percent inhibition values determined at a range of inhibitor concentrations using software routines as implemented in the GraphPad Prism software package.

T1 sequence (P10721 with tags, fused parts or gaps): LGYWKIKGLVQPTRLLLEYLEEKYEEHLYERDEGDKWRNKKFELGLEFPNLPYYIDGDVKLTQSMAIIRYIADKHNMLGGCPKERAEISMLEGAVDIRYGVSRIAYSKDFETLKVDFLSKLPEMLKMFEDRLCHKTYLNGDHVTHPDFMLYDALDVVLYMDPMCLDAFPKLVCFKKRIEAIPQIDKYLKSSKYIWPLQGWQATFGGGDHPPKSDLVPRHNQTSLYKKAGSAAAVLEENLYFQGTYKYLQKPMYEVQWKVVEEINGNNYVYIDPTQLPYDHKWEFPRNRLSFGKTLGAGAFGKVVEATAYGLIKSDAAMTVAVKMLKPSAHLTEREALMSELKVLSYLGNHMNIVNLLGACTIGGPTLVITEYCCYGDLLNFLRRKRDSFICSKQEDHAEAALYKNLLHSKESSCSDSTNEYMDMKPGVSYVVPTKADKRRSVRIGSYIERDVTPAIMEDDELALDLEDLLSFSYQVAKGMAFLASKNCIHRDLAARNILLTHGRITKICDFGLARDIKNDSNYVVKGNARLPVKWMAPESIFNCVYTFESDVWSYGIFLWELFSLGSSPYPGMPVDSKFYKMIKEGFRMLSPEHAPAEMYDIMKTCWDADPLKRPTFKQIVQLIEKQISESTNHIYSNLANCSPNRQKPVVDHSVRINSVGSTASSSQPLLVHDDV

IC50 [1]	IC50 (osteoclast precursors)	IC50 [2]	SMILES	IC50 (M-NFS-60 cells)
10 to 100 nM	10 to 100 nM	100 to 1000 nM	Cc1nc(-n2nc(Cc3ccc(F)cc3)[nH]c2=O)ccc1Oc1ccnc(-c2cnn(C)c2)c1 [Example 1, 3-(4-fluorobenzyl)-1-(6-methyl-5-((2-(1-methyl-1H-pyrazol-4-yl)pyridin-4-yl)oxy)pyridin-2-yl)-1H-1,2,4-triazol-5(4H)-one]	10 to 100 nM
≤ 10 nM	10 to 100 nM	100 to 1000 nM	Cc1nc(-n2nc(Cc3ccccc3)[nH]c2=O)ccc1Oc1ccnc(-c2cnn(C)c2)c1 [Example 2, 3-benzyl-1-(6-methyl-5-((2-(1-methyl-1H-pyrazol-4-yl)pyridin-4-yl)oxy)pyridin-2-yl)-1H-1,2,4-triazol-5(4H)-one]	10 to 100 nM
10 to 100 nM	10 to 100 nM	10 to 100 nM	Cn1cc(-c2cc(Oc3ccc(-n4nc(Cc5ccc(F)cc5)[nH]c4=O)nc3)ccn2)cn1 [Example 3, 3-(4-fluorobenzyl)-1-(5-((2-(1-methyl-1H-pyrazol-4-yl)pyridin-4-yl)oxy)pyridin-2-yl)-1H-1,2,4-triazol-5(4H)-one]	10 to 100 nM
10 to 100 nM	10 to 100 nM	10 to 100 nM	Cn1cc(-c2cc(Oc3ccc(-n4nc(C(C)(C)C)[nH]c4=O)nc3)ccn2)cn1 [Example 4, 3-(tert-butyl)-1-(5-((2-(1-methyl-1H-pyrazol-4-yl)pyridin-4-yl)oxy)pyridin-2-yl)-1H-1,2,4-triazol-5(4H)-one]	10 to 100 nM
10 to 100 nM	10 to 100 nM	100 to 1000 nM	Cc1nc(-n2nc(C(C)C)[nH]c2=O)ccc1Oc1ccnc(-c2cnn(C)c2)c1 [Example 5, 3-isopropyl-1-(6-methyl-5-((2-(1-methyl-1H-pyrazol-4-yl)pyridin-4-yl)oxy)pyridin-2-yl)-1H-1,2,4-triazol-5(4H)-one]	10 to 100 nM
≤ 10 nM	10 to 100 nM	10 to 100 nM	Cc1nc(-n2nc(C3CCCCC3)[nH]c2=O)ccc1Oc1ccnc(-c2cnn(C)c2)c1 [Example 6, 3-cyclohexyl-1-(6-methyl-5-((2-(1-methyl-1H-pyrazol-4-yl)pyridin-4-yl)oxy)pyridin-2-yl)-1H-1,2,4-triazol-5(4H)-one]	≤ 10 nM
10 to 100 nM	10 to 100 nM	100 to 1000 nM	Cc1nc(-n2nc(C(C)(C)C)[nH]c2=O)ccc1Oc1ccnc(-c2cnn(C)c2)c1 [Example 7, 3-(tert-butyl)-1-(6-methyl-5-((2-(1-methyl-1H-pyrazol-4-yl)pyridin-4-yl)oxy)pyridin-2-yl)-1H-1,2,4-triazol-5(4H)-one]	10 to 100 nM
10 to 100 nM	10 to 100 nM	100 to 1000 nM	Cc1cc(-c2cc(Oc3ccc(-n4nc(C(C)(C)C)[nH]c4=O)nc3C)ccn2)ccn1 [Example 9, 3-(tert-butyl)-1-(6-methyl-5-((2′-methyl-[2,4′-bipyridin]-4-yl)oxy)pyridin-2-yl)-1H-1,2,4-triazol-5(4H)-one]	10 to 100 nM
10 to 100 nM	10 to 100 nM	> 1000 nM	Cc1ccc(-c2cc(Oc3ccc(-n4nc(C(C)(C)C)[nH]c4=O)nc3C)ccn2)cn1 [Example 10, 3-(tert-butyl)-1-(6-methyl-5-((6′-methyl-[2,3′-bipyridin]-4-yl)oxy)pyridin-2-yl)-1H-1,2,4-triazol-5(4H)-one]	10 to 100 nM
100 to 1000 nM	100 to 1000 nM	100 to 1000 nM	Cc1nc(-n2nc(C(C)(C)C)n(C)c2=O)ccc1Oc1ccnc(-c2cnn(C)c2)c1 [Example 13, 3-(tert-butyl)-4-methyl-1-(6-methyl-5-((2-(1-methyl-1H-pyrazol-4-yl)pyridin-4-yl)oxy)pyridin-2-yl)-1H-1,2,4-triazol-5(4H)-one]	100 to 1000 nM
10 to 100 nM	≤ 10 nM	10 to 100 nM	Cc1nc(-n2nc(C(C)(C)C)[nH]c2=O)ccc1Oc1ccnc(-c2ccc(C3CCN(C)CC3)cc2)c1 [Example 14, 3-(tert-butyl)-1-(6-methyl-5-((2-(4-(1-methylpiperidin-4-yl)phenyl)pyridin-4-yl)oxy)pyridin-2-yl)-1H-1,2,4-triazol-5(4H)-one]	10 to 100 nM
100 to 1000 nM	10 to 100 nM	> 1000 nM	COC(C)(C)c1nn(-c2ccc(Oc3ccnc(-c4cnn(C)c4)c3)c(C)n2)c(=O)[nH]1 [Example 16, 3-(2-methoxypropan-2-yl)-1-(6-methyl-5-((2-(1-methyl-1H-pyrazol-4-yl)pyridin-4-yl)oxy)pyridin-2-yl)-1H-1,2,4-triazol-5(4H)-one]	100 to 1000 nM
100 to 1000 nM	100 to 1000 nM	100 to 1000 nM	Cc1nc(-n2nc(C3CCOCC3)[nH]c2=O)ccc1Oc1ccnc(-c2cnn(C)c2)c1 [Example 20, 1-(6-methyl-5-((2-(1-methyl-1H-pyrazol-4-yl)pyridin-4-yl)oxy)pyridin-2-yl)-3-(tetrahydro-2H-pyran-4-yl)-1H-1,2,4-triazol-5(4H)-one]	100 to 1000 nM
≤ 10 nM	10 to 100 nM	10 to 100 nM	Cc1nc(-n2nc(CC(C)C)[nH]c2=O)ccc1Oc1ccnc(-c2cnn(C)c2)c1 [Example 22, 3-isobutyl-1-(6-methyl-5-((2-(1-methyl-1H-pyrazol-4-yl)pyridin-4-yl)oxy)pyridin-2-yl)-1H-1,2,4-triazol-5(4H)-one]	≤ 10 nM
10 to 100 nM	10 to 100 nM	10 to 100 nM	CCC(C)(C)c1nn(-c2ccc(Oc3ccnc(-c4cnn(C)c4)c3)c(C)n2)c(=O)[nH]1 [Example 25, 1-(6-methyl-5-((2-(1-methyl-1H-pyrazol-4-yl)pyridin-4-yl)oxy)pyridin-2-yl)-3-(tert-pentyl)-1H-1,2,4-triazol-5(4H)-one]	10 to 100 nM
10 to 100 nM	10 to 100 nM	100 to 1000 nM	Cc1nc(-n2nc(C3(C)CC3)[nH]c2=O)ccc1Oc1ccnc(-c2cnn(C)c2)c1 [Example 27, 1-(6-methyl-5-((2-(1-methyl-1H-pyrazol-4-yl)pyridin-4-yl)oxy)pyridin-2-yl)-3-(1-methylcyclopropyl)-1H-1,2,4-triazol-5(4H)-one]	10 to 100 nM
